Data taken from patent US8912136B2, “Methods and compositions related to clot-binding compounds” (Sanford-Burnham Medical Research Institute, priority 2009, dated 2014).
Where no end group is shown, it is not given here. FAM = 5(6)-carboxyfluorescein; Ahx = NCCCCCC(=O)O

What was measured:
[1] = tested on: orthotopic 22Rv1 xenograft tumors; experiment: In vivo homing of FAM-labeled CREKA and methylated CREKA peptides; design: species or system mouse
Description: Tumor accumulation of CREKA peptide and its N-methylated and C-methylated variants. The accumulation of N-methylated and C-methylated derivatives of CREKA was measured in mice bearing orthotropic 22Rv-1 xenograft tumors. The mice were intravenously injected with 200 μg of FAM-conjugated CREKA or methylated CREKA peptides derivatives. The peptides were allowed to circulate for 3 hrs. The mice were then perfused through the heart with PBS, and organs were collected and the fluorescence was measured under UV light. The fluorescence was analyzed with Image J software. Most N/C-methylated CREKA analogs produced stronger fluorescence compared to the unmodified CREKA. […] In FIG. 10B the enhanced fluorescence of CR(NMe)EKA is shown in the tumor compared to both CREKA and C(NMe)REKA peptide. It is shown that FAM-labeled CREKA peptide in which the glutamic acid is N-methylated accumulates in tumor tissue more strongly than unmodified CREKA.
Orthotopic prostate cancers were used when they reached 0.5-1 cm in size. Synthetic peptides labeled with fluorescein (approximately 200 μg) were intravenously injected into tumor-bearing mice and allowed to circulate for 15 minutes to 3 hours. The mice were perfused with PBS through the heart under anesthesia, and tissues were collected and observed under UV light (Illumatool Bright Light System LT-9900, Lightools Research, Encinitas, Calif.), and then processed for immunofluorescence or immunohistochemistry.

plasma clots = experiment: Binding to plasma clots (affinity); settings: data not shown
[2] = tested on: MDA-MB-435 human breast cancer xenografts; experiment: Tumor homing of intravenously injected fluorescent CREKA peptide; type: in vivo, mouse
From the text: (§1) CREKA peptide. A tumor-homing peptide was used to construct targeted nanoparticles. […] The most frequently represented peptide sequence in the selected phage preparation was CREKA (cys-arg-glu-lys-ala; SEQ ID NO:1). The CREKA peptide was synthesized with a fluorescent dye attached to the N-terminus and the in vivo distribution of the peptide was studied in tumor-bearing mice. […] The peptide formed a distinct meshwork in the tumor stroma (FIG. 5), and it also highlighted the blood vessels in the tumors.
(§2) Phage screening, tumors and peptides. In vivo screening of a peptide library with the general structure of CX7C (SEQ ID NO: 4), where C is cysteine and X is any amino acid, was carried out as described (Oh 2004) using 65- to 75-day-old transgenic MMTV PyMT mice (Hutchinson 2000). These mice express the polyoma virus middle T antigen (MT) under the transcriptional control of the mouse mammary tumor virus (MMTV), leading to the induction of multi-focal mammary tumors in 100% of carriers. MDA-MB-435 tumors in nude mice and peptide synthesis have been described (Laakkonen 2002; Laakkonen 2004). B16F1 murine melanoma tumors were grown in fibrinogen null mice (Suh 1995) and their normal littermates and used when they reached 0.5-1 cm in size (Pilch 2006).

PyMT tumors = experiment: as above; type: in vivo, mouse; settings: intravenous; fluorescent dye at N-terminus; minutes to hours after the injection
From the text: as §1, §2

mouse plasma clots = experiment: Nanoparticle binding to plasma clots in vitro; settings: FIG. 1D
Description: Phage and nanoparticle binding to clots. Phage binding to clotted plasma proteins was determined as described (Pilch 2006). CREKA-SPIO and control SPIO were added to freshly formed plasma clots in the presence or absence of free CREKA peptide. After 10 min incubation, the clots were washed 4 times in PBS, transferred to a new tube and digested in 100 μl concentrated nitric acid. The digested material was diluted in 2 ml distilled water and the iron concentration was determined using inductively coupled plasma-optical emission spectroscopy (ICP-OES, PerkinElmer, Norwalk, Conn.).

B16F1 melanomas = experiment: CREKA peptide homing in fibrinogen null mice and normal littermates; type: in vivo, mouse; settings: intravenous
Description: Tumors contain a meshwork of clotted plasma proteins in the tumor stroma and the walls of vessels, but no such meshwork is detectable in normal tissues (Dvorak 1985; Abe 1999; Pilch 2006). The mesh-like pattern produced by the CREKA peptide in tumors prompted the study of whether clotted plasma proteins can be the target of this peptide. The peptide was tested in fibrinogen knockout mice, which lack the fibrin meshwork in their tumors. […] Its structure makes it an attractive peptide to use in nanoparticle targeting because, unlike other clot-binding peptides, which are cyclic 10 amino-acid peptides (Pilch 2006), CREKA is linear and contains only 5 amino acids. Moreover, the sulfhydryl group of the single cysteine residue is not required to provide binding activity and can be used to couple the peptide to other moieties.
Phage screening, tumors and peptides. In vivo screening of a peptide library with the general structure of CX7C (SEQ ID NO: 4), where C is cysteine and X is any amino acid, was carried out as described (Oh 2004) using 65- to 75-day-old transgenic MMTV PyMT mice (Hutchinson 2000). These mice express the polyoma virus middle T antigen (MT) under the transcriptional control of the mouse mammary tumor virus (MMTV), leading to the induction of multi-focal mammary tumors in 100% of carriers. […]

[3] = Peptide stability in vivo (NW-bound peptide recovered from blood, mass spectrometry); design: species or system mouse
Description: The peptides were conjugated with a linker that bridges the NW and a cysteine residue on the peptide, forming a disulfide with the OPSS group. The peptide-coated NW were injected into animals, and blood was collected 15 minutes and 3 hours after the injection. The plasma was separated and NW were collected by ultracentrifugation (100,000×g for 10 minutes at 4° C.). Proteins bound to the NW were removed by incubation with glycine-HCl, pH 2.8 on a magnetic LS columns (MACS separation columns, Miltenyi Biotec, Bergisch Gladbach, Germany). The peptides were cleaved from the NW by incubating with 10 mM dithiothreitol for 30 minutes at room temperature. The iron oxide was separated from the peptide by ultracentrifugation (100,000×g for 10 minutes at 4° C.) and the supernatant fractions containing the peptide were analyzed by matrix-assisted laser desorption ionization-time of flight (MALDI-TOF) mass spectrometry.

Kd (plasma clots): 6 µM
effect of free peptide on CREKA-SPIO binding to clotted plasma proteins (mouse plasma clots): inhibited
Substance: cys-arg-glu-lys-ala ({FAM-Ahx}-CREKA; not fully specified; printed as cys-arg-glu-lys-ala)
fluorescence in the tumors ([1]; 30 minutes after the injection): equally strong fluorescence
decrease of tumor fluorescence ([1]; after 3 hours): 70%
whole animal imaging: elimination and liver accumulation ([2]; 30 μg Alexa Fluor 647-labeled CREKA, 6 hours): excreted into the urine and does not accumulate in the liver
CREKA peptide detection in tumors ([2]; intravenous, fluorescent dye at N-terminus, minutes to hours after the injection): readily detectable
CREKA peptide detection in normal tissues ([2]; intravenous, fluorescent peptide): essentially undetectable
CREKA peptide detection in tumors (PyMT tumors): readily detectable
accumulation in tumors grown in fibrinogen null mice (B16F1 melanomas; fibrinogen null mice): failed to accumulate
accumulation in tumors grown in normal littermates (B16F1 melanomas; normal littermates of the null mice): formed a brightly fluorescent meshwork
peptide abundance in blood samples ([3]; after 15 minutes of circulation): equally abundant
peptide in blood samples ([3]; after 3 hours): undetectable
